ChEMBL document CHEMBL4507283, “Data for DCP probe BI-1935” (2021)

How the values were obtained:
[1] = target: Voltage-dependent L-type calcium channel subunit alpha-1C (Rattus norvegicus, UniProt P22002); assay: CA+/TLATATG Eurofins-Panlabs selectivity data (BI); parameters: species or system Cavia porcellus; mode of action antagonist; conditions: guinea pig, atrial tissue, read-out: % Ctrl
[2] = target: Calcitonin-gene-related peptide receptor, CALCRL/RAMP1 (Homo sapiens) (UniProt O60894+Q16602); assay: CGRP/HU Eurofins-Panlabs selectivity data (BI); format: protein-complex assay; conditions: Compound concentration 10.0 uM
[3] = target: Endothelin-1 receptor (Homo sapiens) (UniProt P25101); assay: ETA/HU Eurofins-Panlabs selectivity data (BI); conditions: Compound concentration 10.0 uM
[4] = target: Calpain-1 catalytic subunit (Homo sapiens) (UniProt P07384); assay: MU-CALPAIN Eurofins-Panlabs selectivity data (BI); conditions: Compound concentration 10.0 uM
[5] = target: cGMP-inhibited 3',5'-cyclic phosphodiesterase 3A (Homo sapiens) (UniProt Q14432); assay: PDE-III/HU Eurofins-Panlabs selectivity data (BI); conditions: Compound concentration 10.0 uM
[6] = system: Tyrosine-protein kinase ABL1 (Homo sapiens), P00519 [H396P]; conditions: Compound concentration 1000.0 nM
[7] = system: Tyrosine-protein kinase ABL1 (Homo sapiens), P00519 [Q252H]; conditions: Compound concentration 1000.0 nM
[8] = target: Tyrosine-protein kinase ABL2 (Homo sapiens) (UniProt P42684); conditions: Compound concentration 1000.0 nM
[9] = target: Calcium/calmodulin-dependent protein kinase type II subunit gamma (Homo sapiens) (UniProt Q13555); conditions: Compound concentration 1000.0 nM
[10] = target: Cyclin-dependent kinase 4 (Homo sapiens) (UniProt P11802); conditions: Compound concentration 1000.0 nM
[11] = target: Cyclin-dependent kinase 4 (Homo sapiens) (UniProt P11802); conditions: Compound concentration 1000.0 nM; remark: listed apart in the source
[12] = target: Macrophage colony-stimulating factor 1 receptor (Homo sapiens) (UniProt P07333); conditions: Compound concentration 1000.0 nM
[13] = target: Serine/threonine-protein kinase 17A (Homo sapiens) (UniProt Q9UEE5); conditions: Compound concentration 1000.0 nM
[14] = target: Dual specificity tyrosine-phosphorylation-regulated kinase 1A (Homo sapiens) (UniProt Q13627); conditions: Compound concentration 1000.0 nM
[15] = system: Epidermal growth factor receptor (Homo sapiens), P00533 [UNDEFINED MUTATION]; conditions: Compound concentration 1000.0 nM
[16] = system: Epidermal growth factor receptor (Homo sapiens), P00533 [UNDEFINED MUTATION]; conditions: Compound concentration 1000.0 nM; remark: listed apart in the source
[17] = target: Eukaryotic translation initiation factor 2-alpha kinase 1 (Homo sapiens) (UniProt Q9BQI3); conditions: Compound concentration 1000.0 nM
[18] = target: Vascular endothelial growth factor receptor 3 (Homo sapiens) (UniProt P35916); conditions: Compound concentration 1000.0 nM
[19] = target: Mast/stem cell growth factor receptor Kit (Homo sapiens) (UniProt P10721); conditions: Compound concentration 1000.0 nM
[20] = target: MAP kinase-activated protein kinase 5 (Homo sapiens) (UniProt Q8IW41); conditions: Compound concentration 1000.0 nM
[21] = target: Dual specificity mitogen-activated protein kinase kinase 3 (Homo sapiens) (UniProt P46734); conditions: Compound concentration 1000.0 nM
[22] = target: MAP kinase-interacting serine/threonine-protein kinase 1 (Homo sapiens) (UniProt Q9BUB5); conditions: Compound concentration 1000.0 nM
[23] = target: Serine/threonine-protein kinase MRCK beta (Homo sapiens) (UniProt Q9Y5S2); conditions: Compound concentration 1000.0 nM
[24] = target: Muscle, skeletal receptor tyrosine-protein kinase (Homo sapiens) (UniProt O15146); conditions: Compound concentration 1000.0 nM
[25] = target: Serine/threonine-protein kinase NLK (Homo sapiens) (UniProt Q9UBE8); conditions: Compound concentration 1000.0 nM
[26] = target: Mitogen-activated protein kinase 13 (Homo sapiens) (UniProt O15264); conditions: Compound concentration 1000.0 nM
[27] = target: Serine/threonine-protein kinase RIO3 (Homo sapiens) (UniProt O14730); conditions: Compound concentration 1000.0 nM
[28] = target: Receptor-interacting serine/threonine-protein kinase 2 (Homo sapiens) (UniProt O43353); conditions: Compound concentration 1000.0 nM
[29] = target: Rho-associated protein kinase 1 (Homo sapiens) (UniProt Q13464); conditions: Compound concentration 1000.0 nM
[30] = target: Serine/threonine-protein kinase Sgk1 (Homo sapiens) (UniProt O00141); conditions: Compound concentration 1000.0 nM
[31] = target: Serine/threonine-protein kinase TBK1 (Homo sapiens) (UniProt Q9UHD2); conditions: Compound concentration 1000.0 nM
[32] = target: TGF-beta receptor type-1 (Homo sapiens) (UniProt P36897); conditions: Compound concentration 1000.0 nM
[33] = target: Angiopoietin-1 receptor (Homo sapiens) (UniProt Q02763); conditions: Compound concentration 1000.0 nM
[34] = target: Serine/threonine-protein kinase WNK2 (Homo sapiens) (UniProt Q9Y3S1); conditions: Compound concentration 1000.0 nM
[35] = target: Serine/threonine-protein kinase 25 (Homo sapiens) (UniProt O00506); conditions: Compound concentration 1000.0 nM
[36] = target: T1, 5-hydroxytryptamine receptor 3A (Homo sapiens) (UniProt P46098); conditions: Compound concentration 10.0 uM
T1 sequence (whole entry): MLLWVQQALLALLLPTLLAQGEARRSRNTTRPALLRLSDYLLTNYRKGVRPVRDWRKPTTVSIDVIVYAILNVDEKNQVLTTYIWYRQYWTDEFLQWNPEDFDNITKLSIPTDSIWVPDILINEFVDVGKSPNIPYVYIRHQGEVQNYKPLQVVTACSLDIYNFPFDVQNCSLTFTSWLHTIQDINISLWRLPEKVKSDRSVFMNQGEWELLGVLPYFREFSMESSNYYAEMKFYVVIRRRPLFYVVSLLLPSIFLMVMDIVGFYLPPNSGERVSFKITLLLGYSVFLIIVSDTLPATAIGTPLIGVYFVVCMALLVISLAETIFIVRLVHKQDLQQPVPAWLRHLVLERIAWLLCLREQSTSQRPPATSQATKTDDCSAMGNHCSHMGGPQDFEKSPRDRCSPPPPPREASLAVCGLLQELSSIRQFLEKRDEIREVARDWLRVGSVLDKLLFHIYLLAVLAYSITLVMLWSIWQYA

[37] = target: 5-hydroxytryptamine receptor 6 (Homo sapiens) (UniProt P50406); conditions: Compound concentration 10.0 uM

Voltage-dependent L-type calcium channel subunit alpha-1C, sequence (P22002 whole entry): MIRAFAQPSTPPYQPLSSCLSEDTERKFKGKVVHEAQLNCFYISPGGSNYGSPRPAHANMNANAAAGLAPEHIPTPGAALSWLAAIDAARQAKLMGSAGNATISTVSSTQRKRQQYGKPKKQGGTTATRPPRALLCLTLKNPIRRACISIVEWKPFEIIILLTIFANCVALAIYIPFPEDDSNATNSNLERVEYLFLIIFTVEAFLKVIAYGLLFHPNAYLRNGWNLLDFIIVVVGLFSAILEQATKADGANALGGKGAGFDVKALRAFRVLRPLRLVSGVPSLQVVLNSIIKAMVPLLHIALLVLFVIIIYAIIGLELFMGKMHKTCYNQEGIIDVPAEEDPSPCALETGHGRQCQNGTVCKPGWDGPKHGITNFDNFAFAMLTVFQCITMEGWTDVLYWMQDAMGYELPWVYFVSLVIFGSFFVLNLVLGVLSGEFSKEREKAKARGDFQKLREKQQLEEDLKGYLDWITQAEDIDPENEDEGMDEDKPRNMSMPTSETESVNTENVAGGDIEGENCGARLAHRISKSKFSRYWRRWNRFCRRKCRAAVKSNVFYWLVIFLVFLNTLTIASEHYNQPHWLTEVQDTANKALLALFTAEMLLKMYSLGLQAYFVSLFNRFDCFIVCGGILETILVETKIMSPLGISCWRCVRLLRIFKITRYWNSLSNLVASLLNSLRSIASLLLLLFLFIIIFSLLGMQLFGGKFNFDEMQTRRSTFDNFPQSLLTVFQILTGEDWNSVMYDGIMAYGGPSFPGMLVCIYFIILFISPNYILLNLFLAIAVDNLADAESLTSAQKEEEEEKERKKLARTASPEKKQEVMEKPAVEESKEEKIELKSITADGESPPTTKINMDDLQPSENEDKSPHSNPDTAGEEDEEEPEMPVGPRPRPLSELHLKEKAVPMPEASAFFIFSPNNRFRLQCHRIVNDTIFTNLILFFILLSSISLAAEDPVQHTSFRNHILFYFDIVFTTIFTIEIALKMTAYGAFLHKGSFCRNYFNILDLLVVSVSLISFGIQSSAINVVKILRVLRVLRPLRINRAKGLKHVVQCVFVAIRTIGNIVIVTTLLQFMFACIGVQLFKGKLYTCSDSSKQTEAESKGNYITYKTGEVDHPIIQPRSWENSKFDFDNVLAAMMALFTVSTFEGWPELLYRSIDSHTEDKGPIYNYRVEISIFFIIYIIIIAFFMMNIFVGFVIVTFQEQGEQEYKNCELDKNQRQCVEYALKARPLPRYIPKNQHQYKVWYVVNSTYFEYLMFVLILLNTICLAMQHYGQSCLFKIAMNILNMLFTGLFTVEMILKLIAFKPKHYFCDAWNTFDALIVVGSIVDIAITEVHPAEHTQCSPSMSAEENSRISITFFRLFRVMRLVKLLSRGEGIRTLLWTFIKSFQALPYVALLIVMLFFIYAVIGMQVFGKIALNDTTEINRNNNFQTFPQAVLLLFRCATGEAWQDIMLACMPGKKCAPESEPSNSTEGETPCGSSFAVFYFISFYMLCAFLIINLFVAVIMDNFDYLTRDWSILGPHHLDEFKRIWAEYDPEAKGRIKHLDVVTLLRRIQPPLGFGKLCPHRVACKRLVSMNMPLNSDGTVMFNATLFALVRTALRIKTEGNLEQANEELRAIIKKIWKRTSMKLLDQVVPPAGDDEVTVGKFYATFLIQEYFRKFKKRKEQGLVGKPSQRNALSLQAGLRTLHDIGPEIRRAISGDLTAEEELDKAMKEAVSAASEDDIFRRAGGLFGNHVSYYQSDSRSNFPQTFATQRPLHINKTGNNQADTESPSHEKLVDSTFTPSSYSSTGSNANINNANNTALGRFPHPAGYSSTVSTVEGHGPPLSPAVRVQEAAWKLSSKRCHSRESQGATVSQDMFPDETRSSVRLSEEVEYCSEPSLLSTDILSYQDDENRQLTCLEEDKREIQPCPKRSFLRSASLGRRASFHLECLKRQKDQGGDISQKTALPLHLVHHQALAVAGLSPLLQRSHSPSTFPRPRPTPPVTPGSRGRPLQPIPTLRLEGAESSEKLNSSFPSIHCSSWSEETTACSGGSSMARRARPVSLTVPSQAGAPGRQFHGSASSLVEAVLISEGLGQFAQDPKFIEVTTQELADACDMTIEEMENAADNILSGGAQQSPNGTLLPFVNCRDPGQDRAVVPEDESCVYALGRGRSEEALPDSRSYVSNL
Epidermal growth factor receptor (Homo sapiens), P00533 [UNDEFINED MUTATION], sequence (P00533 whole entry, looked up, change not shown): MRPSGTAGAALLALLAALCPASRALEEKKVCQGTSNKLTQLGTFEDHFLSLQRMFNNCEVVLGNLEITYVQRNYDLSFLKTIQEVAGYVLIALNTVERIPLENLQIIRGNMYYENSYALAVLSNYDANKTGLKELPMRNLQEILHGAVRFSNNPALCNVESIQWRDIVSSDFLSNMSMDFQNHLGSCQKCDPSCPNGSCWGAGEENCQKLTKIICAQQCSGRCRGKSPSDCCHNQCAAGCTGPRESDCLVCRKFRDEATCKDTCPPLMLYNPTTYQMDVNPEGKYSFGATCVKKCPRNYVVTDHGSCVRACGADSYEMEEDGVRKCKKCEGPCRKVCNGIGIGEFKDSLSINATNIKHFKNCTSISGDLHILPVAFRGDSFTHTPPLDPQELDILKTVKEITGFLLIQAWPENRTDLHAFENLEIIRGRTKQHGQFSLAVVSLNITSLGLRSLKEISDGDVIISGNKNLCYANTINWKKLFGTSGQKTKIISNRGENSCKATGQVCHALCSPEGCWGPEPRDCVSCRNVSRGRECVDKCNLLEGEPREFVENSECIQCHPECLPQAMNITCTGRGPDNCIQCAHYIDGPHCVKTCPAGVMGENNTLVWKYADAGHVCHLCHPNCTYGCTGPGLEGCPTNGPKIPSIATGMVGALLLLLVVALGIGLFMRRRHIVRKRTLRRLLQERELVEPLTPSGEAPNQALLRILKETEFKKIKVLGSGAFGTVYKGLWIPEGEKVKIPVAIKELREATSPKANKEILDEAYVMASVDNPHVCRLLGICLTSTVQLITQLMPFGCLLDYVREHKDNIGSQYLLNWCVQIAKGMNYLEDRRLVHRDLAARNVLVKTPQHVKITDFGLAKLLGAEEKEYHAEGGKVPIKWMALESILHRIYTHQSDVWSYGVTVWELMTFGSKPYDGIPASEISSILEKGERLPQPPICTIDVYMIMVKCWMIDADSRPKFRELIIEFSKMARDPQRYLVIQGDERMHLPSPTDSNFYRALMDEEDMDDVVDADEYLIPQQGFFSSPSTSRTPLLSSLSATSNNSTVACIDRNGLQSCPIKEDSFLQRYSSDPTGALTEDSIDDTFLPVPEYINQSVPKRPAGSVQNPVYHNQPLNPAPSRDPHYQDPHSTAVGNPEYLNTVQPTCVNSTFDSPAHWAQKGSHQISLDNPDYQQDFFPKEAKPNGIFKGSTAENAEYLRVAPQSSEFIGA
Cyclin-dependent kinase 4 (Homo sapiens), sequence (P11802 whole entry): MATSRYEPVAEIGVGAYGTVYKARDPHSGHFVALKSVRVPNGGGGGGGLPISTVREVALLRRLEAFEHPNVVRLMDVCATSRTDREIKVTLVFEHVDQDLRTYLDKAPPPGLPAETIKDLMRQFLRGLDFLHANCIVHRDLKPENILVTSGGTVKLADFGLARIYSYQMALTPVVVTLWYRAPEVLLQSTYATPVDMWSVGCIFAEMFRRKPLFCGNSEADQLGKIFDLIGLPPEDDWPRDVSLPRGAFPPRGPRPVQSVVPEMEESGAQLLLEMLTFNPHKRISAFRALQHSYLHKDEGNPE
TGF-beta receptor type-1 (Homo sapiens), sequence (P36897 whole entry): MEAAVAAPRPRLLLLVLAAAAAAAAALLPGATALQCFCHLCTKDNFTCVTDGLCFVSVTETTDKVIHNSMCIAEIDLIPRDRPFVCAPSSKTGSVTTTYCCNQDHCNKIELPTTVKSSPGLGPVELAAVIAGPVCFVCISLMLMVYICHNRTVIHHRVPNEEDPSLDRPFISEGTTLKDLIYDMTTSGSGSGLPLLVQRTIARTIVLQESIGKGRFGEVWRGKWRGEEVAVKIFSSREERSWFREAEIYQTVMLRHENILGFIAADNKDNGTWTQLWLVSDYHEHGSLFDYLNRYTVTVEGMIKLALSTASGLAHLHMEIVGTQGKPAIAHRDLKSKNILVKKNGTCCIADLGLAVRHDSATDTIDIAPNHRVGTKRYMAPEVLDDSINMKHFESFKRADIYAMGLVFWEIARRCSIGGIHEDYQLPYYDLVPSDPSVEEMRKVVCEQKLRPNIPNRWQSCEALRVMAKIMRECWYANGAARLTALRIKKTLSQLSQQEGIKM
Serine/threonine-protein kinase Sgk1 (Homo sapiens), sequence (O00141 whole entry): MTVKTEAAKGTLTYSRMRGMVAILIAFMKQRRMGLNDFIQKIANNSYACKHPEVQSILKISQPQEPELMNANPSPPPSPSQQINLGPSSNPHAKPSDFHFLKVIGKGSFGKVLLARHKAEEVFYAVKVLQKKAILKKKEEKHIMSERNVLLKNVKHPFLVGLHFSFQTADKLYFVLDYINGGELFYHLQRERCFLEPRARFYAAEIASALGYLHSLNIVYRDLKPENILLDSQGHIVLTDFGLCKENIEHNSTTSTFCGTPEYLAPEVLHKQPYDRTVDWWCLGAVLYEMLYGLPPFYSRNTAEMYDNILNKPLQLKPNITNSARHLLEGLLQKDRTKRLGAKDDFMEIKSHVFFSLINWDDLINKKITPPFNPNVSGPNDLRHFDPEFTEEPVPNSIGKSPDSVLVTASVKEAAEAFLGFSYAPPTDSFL
MAP kinase-activated protein kinase 5 (Homo sapiens), sequence (Q8IW41 whole entry): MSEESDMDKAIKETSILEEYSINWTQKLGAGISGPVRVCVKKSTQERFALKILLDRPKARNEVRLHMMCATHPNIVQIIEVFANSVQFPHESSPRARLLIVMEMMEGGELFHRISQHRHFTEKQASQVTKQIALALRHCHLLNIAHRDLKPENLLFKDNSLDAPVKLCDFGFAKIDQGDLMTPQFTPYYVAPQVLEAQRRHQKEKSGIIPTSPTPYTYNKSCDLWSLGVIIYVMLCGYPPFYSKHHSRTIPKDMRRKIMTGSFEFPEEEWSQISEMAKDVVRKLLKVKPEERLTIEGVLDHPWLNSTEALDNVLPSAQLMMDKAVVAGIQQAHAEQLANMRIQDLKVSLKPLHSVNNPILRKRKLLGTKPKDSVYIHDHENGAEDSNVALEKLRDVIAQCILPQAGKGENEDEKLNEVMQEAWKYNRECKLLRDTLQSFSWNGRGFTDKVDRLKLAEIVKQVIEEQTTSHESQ

CCOCCn1cc(C(=O)Nc2ccc(-n3nc(-c4cccnc4)cc3C(F)(F)F)cn2)ccc1=O [BI 1935]
activity at 1 µM ([1]; compound concentration 1 uM): 86% (not active) | activity at 3 µM ([1]; compound concentration 3 uM): 68% (not active) | activity at 10 µM ([1]; compound concentration 10 uM): 25% | residual activity [2]: 105% | residual activity [3]: 97% | residual activity [4]: 96% | residual activity [5]: 85% | residual activity [6]: 100% | residual activity [7]: 73% | residual activity [8]: 87% | residual activity [9]: 100% | residual activity [10]: 87% | residual activity [11]: 81% | residual activity [12]: 100% | residual activity [13]: 100% | residual activity [14]: 77% | residual activity [15]: 96% | residual activity [16]: 98% | residual activity [17]: 84% | residual activity [18]: 92% | residual activity [19]: 100% | residual activity [20]: 87% | residual activity [21]: 83% | residual activity [22]: 97% | residual activity [23]: 89% | residual activity [24]: 99% | residual activity [25]: 47% | residual activity [26]: 97% | residual activity [27]: 88% | residual activity [28]: 71% | residual activity [29]: 74% | residual activity [30]: 83% | residual activity [31]: 76% | residual activity [32]: 100% | residual activity [33]: 87% | residual activity [34]: 64% | residual activity [35]: 95% | inhibition [36]: 2.27% | inhibition [37]: 0.656%
